From US10159249B2 (BAYER CROPSCIENCE AKTIENGESELLSCHAFT, priority 2013, dated 2018)
Like-named read-outs stand apart in the source and are kept apart here.

How the values were obtained:
PfHPPD336W (SEQ ID No 4) = PfHPPD336W (SEQ ID No 4) (Pseudomonas sp., UniProt P80064, G335W); assay: biochemical; set-up: species or system Pseudomonas fluorescens
[1] = biological target: PfHPPD-Evo41 (SEQ ID No 29) (Pseudomonas sp., UniProt P80064, A172V/A339Q/A53E/D148E/D45N/E105D/E287Q/E300V/E334P/F143Y/G286D/G335W/H150N/H254A/H63N/I158V/I187A/I249V/K338A/K92N/L18F/N24G/N280D/S245T/S257K/S301E/T205S/V65I); assay: biochemical; set-up: species or system Pseudomonas fluorescens
Chain of PfHPPD-Evo41 (SEQ ID No 29) (P80064 1-354 with tags or gaps with the stated changes limits assumed): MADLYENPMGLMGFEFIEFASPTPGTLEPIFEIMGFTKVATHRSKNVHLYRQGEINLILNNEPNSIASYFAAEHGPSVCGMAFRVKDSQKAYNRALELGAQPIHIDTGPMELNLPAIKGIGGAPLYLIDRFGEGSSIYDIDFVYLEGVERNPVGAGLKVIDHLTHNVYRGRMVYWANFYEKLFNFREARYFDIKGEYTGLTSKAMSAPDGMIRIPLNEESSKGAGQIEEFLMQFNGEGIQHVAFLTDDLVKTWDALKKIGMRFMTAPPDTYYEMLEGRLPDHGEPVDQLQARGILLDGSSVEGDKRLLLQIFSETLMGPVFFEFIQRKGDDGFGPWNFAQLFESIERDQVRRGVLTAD

[2] = tested on: transgenic soybean T1 plants expressing PfHPPD-Evo41; format: in vivo; conditions: for number of events, herbicide tolerance class 0 (41%-100% damaged leaf area) / number of events, herbicide tolerance class 1 (16%-40% damaged leaf area) / number of events, herbicide tolerance class 2 (6%-15% damaged leaf area) / number of events, herbicide tolerance class 3 (0%-5% damaged leaf area): soybean PfHPPD-Evo41, scored after 21 days
Amaranthus retroflexus = conditions: (A) 50 g ai/ha; application at 6 leaf stage; assessment 14 days after application
[3] = biological target: Avena sativa Δ A109 (SEQ ID No 43) (Avena sativa, UniProt A0ACD5V6K6, DEL109-109); assay: HPPD activity in presence of inhibitor, HGD assay; format: biochemical
Chain of Avena sativa Δ A109 (SEQ ID No 43) (A0ACD5V6K6 entry or part of it DEL109-109): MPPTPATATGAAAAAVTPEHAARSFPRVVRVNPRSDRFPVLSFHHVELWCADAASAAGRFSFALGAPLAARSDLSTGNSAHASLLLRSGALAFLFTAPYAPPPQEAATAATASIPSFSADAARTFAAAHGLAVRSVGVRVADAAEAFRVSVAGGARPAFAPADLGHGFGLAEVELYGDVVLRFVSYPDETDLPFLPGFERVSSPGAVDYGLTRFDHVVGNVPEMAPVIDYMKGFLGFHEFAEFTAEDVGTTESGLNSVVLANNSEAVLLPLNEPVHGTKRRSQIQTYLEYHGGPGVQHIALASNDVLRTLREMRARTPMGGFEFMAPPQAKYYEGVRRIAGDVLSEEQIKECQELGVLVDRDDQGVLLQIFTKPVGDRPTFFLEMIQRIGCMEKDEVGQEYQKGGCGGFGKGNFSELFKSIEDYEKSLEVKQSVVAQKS
Procedure: (§1) With the HGD assay HPPD activity was measured at room temperature by adding appropriate amounts of HPPD to a solution of 200 mM Tris-HCl pH 7.6, 10 mM ascorbate, 20 μM FeSO4, 650 units of catalase, 8 μg HGA dioxygenase (HGA: homogentisate) and 600 μM HPP in a total volume of 1 ml. Initial reaction rates were determined from the increase in absorbance at 318 nm due to the formation of maleylacetoacetate (ε318=11,900 M-1 cm-1).
(§2) In cases, the symbol “>” is used this means that the value was far higher than the one indicated but could not be precisely calculated within in the range of concentration of inhibitor tested.
(§3) In the 1st column of Table 1, the HPPD employed in the assay is named and in the 2nd column of Table 1, the corresponding SEQ ID No of present invention is disclosed.

FMP37 (SEQ ID No 9) = FMP37 (SEQ ID No 9) (Blepharisma japonicum, UniProt A8R3H6); assay: HPPD activity in presence of inhibitor, HGD assay; format: biochemical
Chain of FMP37 (SEQ ID No 9) (A8R3H6 1-382): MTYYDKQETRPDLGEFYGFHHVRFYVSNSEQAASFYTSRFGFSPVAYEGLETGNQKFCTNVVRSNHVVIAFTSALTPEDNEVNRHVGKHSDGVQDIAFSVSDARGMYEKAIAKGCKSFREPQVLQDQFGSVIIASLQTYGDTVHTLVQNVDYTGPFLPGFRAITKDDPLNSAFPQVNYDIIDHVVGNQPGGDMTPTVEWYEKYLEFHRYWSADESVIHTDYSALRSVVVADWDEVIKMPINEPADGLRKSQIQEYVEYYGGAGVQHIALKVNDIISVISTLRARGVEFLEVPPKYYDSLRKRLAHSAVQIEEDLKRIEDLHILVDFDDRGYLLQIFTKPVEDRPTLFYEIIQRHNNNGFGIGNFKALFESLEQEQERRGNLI
Procedure: as §1, §2, §3

FMP27 (SEQ ID No 17) = FMP27 (SEQ ID No 17) (Kordia algicida, UniProt A9DQF2); assay: HPPD activity in presence of inhibitor, HGD assay; format: biochemical
Chain of FMP27 (SEQ ID No 17) (A9DQF2 1-387): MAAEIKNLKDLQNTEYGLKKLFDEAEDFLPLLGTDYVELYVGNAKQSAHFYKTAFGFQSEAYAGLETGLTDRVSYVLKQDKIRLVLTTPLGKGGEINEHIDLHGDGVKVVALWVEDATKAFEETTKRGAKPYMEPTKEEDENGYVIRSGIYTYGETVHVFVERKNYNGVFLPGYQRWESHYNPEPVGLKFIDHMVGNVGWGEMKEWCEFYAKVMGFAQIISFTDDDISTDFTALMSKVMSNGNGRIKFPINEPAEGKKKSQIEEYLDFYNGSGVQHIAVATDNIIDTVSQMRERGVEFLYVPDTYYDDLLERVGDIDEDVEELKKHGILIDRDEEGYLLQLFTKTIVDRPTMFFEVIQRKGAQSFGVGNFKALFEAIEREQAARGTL
Procedure: as §1, §2, §3

Digitaria horizontalis = assay: Field trial, weed efficacy, post applied; format: in vivo; conditions: (A) 50 g ai/ha; application at 2 tillers; assessment 14 days after application
Axmi309H (SEQ ID No 35) = assay: HPPD activity in presence of inhibitor, HGD assay; format: biochemical, Pseudomonas agarici
Procedure: as §1, §2, §3

[4] = tested on: Axmi309H-Evo41 (SEQ ID No 37); assay: HPPD activity in presence of inhibitor, HGD assay; format: biochemical, Pseudomonas agarici
Procedure: as §1, §2, §3

[5] = tested on: wild type soybean plants (Merlin and Thorne); format: in vivo; conditions: 21 days after spraying
Axmi428H (SEQ ID No 31) = Axmi428H (SEQ ID No 31) (Comamonas testosteroni, UniProt A0A8B4SBH1); assay: HPPD activity in presence of inhibitor, HGD assay; format: biochemical, Pseudomonas (=Comamonas) testosteroni; conditions: 0.2 μM inhibitor
Chain of Axmi428H (SEQ ID No 31) (A0A8B4SBH1 1-373): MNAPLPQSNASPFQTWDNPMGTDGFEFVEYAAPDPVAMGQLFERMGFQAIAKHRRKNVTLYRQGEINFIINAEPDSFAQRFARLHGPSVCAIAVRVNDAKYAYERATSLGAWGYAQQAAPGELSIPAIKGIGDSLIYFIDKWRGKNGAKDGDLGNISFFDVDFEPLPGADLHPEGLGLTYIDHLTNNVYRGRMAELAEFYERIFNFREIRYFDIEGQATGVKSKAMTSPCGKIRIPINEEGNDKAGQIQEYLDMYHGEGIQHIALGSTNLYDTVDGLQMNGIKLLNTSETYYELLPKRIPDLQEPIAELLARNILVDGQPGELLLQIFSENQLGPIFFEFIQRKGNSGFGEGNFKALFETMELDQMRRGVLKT
Procedure: as §1, §2, §3

[6] = tested on: maize transgenic T0 events expressing Axmi309H-Evo41; format: in vivo; conditions: 100 g AI/ha, six days after application
Procedure: Regenerated T0 events from tissue culture were transplanted into two inch square pots with synthetic soil (Fafard® Mix) and controlled-released fertilizer (Haifa Multicote™; polymer-coated controlled-release fertilizer, NPK Pro 18-6-12+Micronutrients) and cultivated in the greenhouse (GH) under supplementary high pressure sodium light for 12 days at a maximum of 30° C. during the day and a minimum of 22° C. at night. Fully recovered plants were transferred into five inch square pots filled with synthetic soil and control released fertilizer under the same environmental conditions. […] All herbicide treatments were conducted in a DeVries Tracker Sprayer system with standard application protocols, which are well known in the art.
A rating of “1” was assigned to plants having a moderate tolerance with 16% to 40% damage of total leaf area. A rating of “2” was assigned to plants with good tolerance within the range of 6% to 15% damage of total leaf area.

FMP22 (SEQ ID No 11) = FMP22 (SEQ ID No 11) (Rhodococcus jostii, UniProt A0ABU4CPN1); assay: HPPD activity in presence of inhibitor, HGD assay; format: biochemical, Rhodococcus sp. (strain RHA1), isolate ro03041; conditions: 0.2 μM inhibitor
Chain of FMP22 (SEQ ID No 11) (A0ABU4CPN1 1-401): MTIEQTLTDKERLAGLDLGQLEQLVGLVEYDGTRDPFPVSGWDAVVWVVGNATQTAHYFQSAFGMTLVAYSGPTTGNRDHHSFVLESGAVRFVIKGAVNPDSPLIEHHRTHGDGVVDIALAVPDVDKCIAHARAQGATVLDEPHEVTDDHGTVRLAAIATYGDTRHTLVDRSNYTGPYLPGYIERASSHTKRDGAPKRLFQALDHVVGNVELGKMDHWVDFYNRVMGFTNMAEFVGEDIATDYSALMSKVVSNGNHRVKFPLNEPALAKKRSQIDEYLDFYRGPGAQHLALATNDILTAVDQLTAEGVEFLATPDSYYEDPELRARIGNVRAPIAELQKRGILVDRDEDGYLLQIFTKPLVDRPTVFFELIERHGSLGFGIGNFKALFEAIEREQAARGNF
Procedure: as §1, §2, §3

[7] = biological target: PfHPPD-Evo33 (SEQ ID No 25) (Pseudomonas sp., UniProt P80064, A172V/A53E/D148E/D45N/E105D/E287Q/E300V/E334P/F143Y/G286D/G335W/H150N/H254A/H63N/I158V/I187A/I249V/K92N/L18F/N24G/N280D/S245T/S257K/S301E/T205S/V65I); assay: biochemical; set-up: species or system Pseudomonas fluorescens
Chain of PfHPPD-Evo33 (SEQ ID No 25) (P80064 1-354 with tags or gaps with the stated changes limits assumed): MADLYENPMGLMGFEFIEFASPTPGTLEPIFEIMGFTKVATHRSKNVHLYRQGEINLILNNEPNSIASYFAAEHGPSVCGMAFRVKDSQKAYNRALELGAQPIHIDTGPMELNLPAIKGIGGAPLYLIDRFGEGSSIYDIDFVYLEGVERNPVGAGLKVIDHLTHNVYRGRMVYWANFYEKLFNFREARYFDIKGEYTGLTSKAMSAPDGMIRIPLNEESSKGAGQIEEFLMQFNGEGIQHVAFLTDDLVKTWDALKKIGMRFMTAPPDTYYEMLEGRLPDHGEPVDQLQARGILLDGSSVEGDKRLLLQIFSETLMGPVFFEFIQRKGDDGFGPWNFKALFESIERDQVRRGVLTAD

Euphorbia heterophylla = assay: Field trial, weed efficacy, post applied; format: in vivo; conditions: application at 5 leaf stage, assessment 14 days after application
[8] = room temperature, 600 μM HPP, molar concentration

Chain of PfHPPD336W (SEQ ID No 4) (P80064 1-354 with tags or gaps with the stated changes): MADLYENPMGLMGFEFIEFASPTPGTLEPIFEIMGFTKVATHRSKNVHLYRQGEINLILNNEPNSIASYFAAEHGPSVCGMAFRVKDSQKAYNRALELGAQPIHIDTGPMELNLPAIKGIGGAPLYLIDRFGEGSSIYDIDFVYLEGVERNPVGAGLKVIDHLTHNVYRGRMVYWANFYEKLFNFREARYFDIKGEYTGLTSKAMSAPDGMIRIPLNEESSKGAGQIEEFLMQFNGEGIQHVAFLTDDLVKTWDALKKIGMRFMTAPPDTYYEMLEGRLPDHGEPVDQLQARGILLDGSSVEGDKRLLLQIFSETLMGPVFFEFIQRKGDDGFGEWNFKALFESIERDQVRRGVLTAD

## CSc1c(C(F)(F)F)ccc(C(=O)Nc2nnnn2C)c1Cl
PfHPPD336W (SEQ ID No 4)
  IC50: 0.2 µM
PfHPPD336W (SEQ ID No 4); 0.2 μM inhibitor, HGD assay
  % inhibition at 0.2 μM: 76%
[1]
  IC50: 0.2 µM
[1]; 0.2 μM inhibitor, HGD assay
  % inhibition at 0.2 μM: 50%
[2]; most soybean T1 plants expressing PfHPPD-Evo41, 25 g AI/ha
  herbicide tolerance: high tolerance
[2]; several soybean T1 plants expressing PfHPPD-Evo41, 50 g AI/ha
  damaged leaf area: less than 5%
[2]; 6.25 g AI/ha
  number of events, herbicide tolerance class 0 (41%-100% damaged leaf area): 0
  number of events, herbicide tolerance class 1 (16%-40% damaged leaf area): 0
  number of events, herbicide tolerance class 2 (6%-15% damaged leaf area): 0
  number of events, herbicide tolerance class 3 (0%-5% damaged leaf area): 12
[2]; 25 g AI/ha
  number of events, herbicide tolerance class 0 (41%-100% damaged leaf area): 2
  number of events, herbicide tolerance class 1 (16%-40% damaged leaf area): 8
  number of events, herbicide tolerance class 2 (6%-15% damaged leaf area): 1
  number of events, herbicide tolerance class 3 (0%-5% damaged leaf area): 21
[2]; 50 g AI/ha
  number of events, herbicide tolerance class 0 (41%-100% damaged leaf area): 0
  number of events, herbicide tolerance class 1 (16%-40% damaged leaf area): 1
  number of events, herbicide tolerance class 2 (6%-15% damaged leaf area): 0
  number of events, herbicide tolerance class 3 (0%-5% damaged leaf area): 3
[2]; 75 g AI/ha
  number of events, herbicide tolerance class 0 (41%-100% damaged leaf area): 0
  number of events, herbicide tolerance class 1 (16%-40% damaged leaf area): 4
  number of events, herbicide tolerance class 2 (6%-15% damaged leaf area): 0
  number of events, herbicide tolerance class 3 (0%-5% damaged leaf area): 0
Amaranthus retroflexus
  Efficacy (%) Amaranthus retroflexus: 65%
[3]
  IC50: 2 µM
[3]; 0.2 μM inhibitor, HGD assay
  inhibition at 0.2 µM: 8%
FMP37 (SEQ ID No 9)
  IC50: 5.01 µM
FMP37 (SEQ ID No 9); 0.2 μM inhibitor, HGD assay
  inhibition at 0.2 µM: 0%
FMP27 (SEQ ID No 17)
  IC50: 0.316 µM
FMP27 (SEQ ID No 17); 0.2 μM inhibitor, HGD assay
  inhibition at 0.2 µM: 29%
Digitaria horizontalis
  Efficacy (%) Digitaria horizontalis: 70%
Axmi309H (SEQ ID No 35); 0.2 μM inhibitor
  % inhibition at 0.2 μM: 78%
Axmi309H (SEQ ID No 35); [8]
  pI50: 7.1
[4]; 0.2 μM inhibitor
  % inhibition at 0.2 μM: 26%
[4]; [8]
  pI50: 6.5
[5]; 6.25 g of AI/ha
  bleaching of the total leaf area: 45%-50%
[5]; 25 g of AI/ha
  damaged leaf area: 90-100%
Axmi428H (SEQ ID No 31)
  inhibition at 0.2 µM: 71%
[6]
  number of events, herbicide tolerance class 0 (41%-100% damaged leaf area): 5
  number of events, herbicide tolerance class 1 (16%-40% damaged leaf area): 9
  number of events, herbicide tolerance class 2 (6%-15% damaged leaf area): 16
  number of events, herbicide tolerance class 3 (0%-5% damaged leaf area): 6
FMP22 (SEQ ID No 11)
  inhibition at 0.2 µM: 0%
[7]
  IC50: 0.251 µM
[7]; 0.2 μM inhibitor, HGD assay
  % inhibition at 0.2 μM: 39%
Euphorbia heterophylla; (A) 25 g ai/ha
  Efficacy (%) Euphorbia heterophylla: 15%
Euphorbia heterophylla; (A) 75 g ai/ha
  Efficacy (%) Euphorbia heterophylla: 35%
